From PubChem BioAssay AID2060493 (Molecular Pharmacology Branch, DTP, NCI, 2025)
Each block holds one compound with its values, some of them ahead of it.

System: 616215-338-R-J1-PDC tumor spheroids, viability
Experiment: Anticancer human tumor 616215-338-R-J1-PDC patient-derived colon adenocarcinoma cell line growth inhibition [GQUAD]
Details: spheroids with HUVEC and MSC; for IC50: curve of first compound; for viability, T/C: stronger effect = lower value
Outline: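 Multi-cell-type spheroids of tumor cells with HUVEC and mesenchymal stem cells, treated with drug combinations. Concentrations descend in half-log steps from near clinical Cmax, or from 10 microM where Cmax is unknown; viability read-out.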

[1] = second compound 0.0316 µM, first compound 0.0316 µM
[2] = second compound 0.0316 µM, first compound 0.1 µM
[3] = second compound 0.0316 µM, first compound 0.316 µM
[4] = second compound 0.0316 µM, first compound 1 µM
[5] = second compound 0.0316 µM, first compound 3.16 µM
[6] = second compound 0.0316 µM, first compound 10 µM
[7] = second compound 0.1 µM, first compound 0.0316 µM
[8] = second compound 0.1 µM, first compound 0.1 µM
[9] = second compound 0.1 µM, first compound 0.316 µM
[10] = second compound 0.1 µM, first compound 1 µM
[11] = second compound 0.1 µM, first compound 3.16 µM
[12] = second compound 0.1 µM, first compound 10 µM
[13] = second compound 0.316 µM, first compound 0.0316 µM
[14] = second compound 0.316 µM, first compound 0.1 µM
[15] = second compound 0.316 µM, first compound 0.316 µM
[16] = second compound 0.316 µM, first compound 1 µM
[17] = second compound 0.316 µM, first compound 3.16 µM
[18] = second compound 0.316 µM, first compound 10 µM
[19] = second compound 1 µM, first compound 0.0316 µM
[20] = second compound 1 µM, first compound 0.1 µM
[21] = second compound 1 µM, first compound 0.316 µM
[22] = second compound 1 µM, first compound 1 µM
[23] = second compound 1 µM, first compound 3.16 µM
[24] = second compound 1 µM, first compound 10 µM
[25] = second compound 3.16 µM, first compound 0.0316 µM
[26] = second compound 3.16 µM, first compound 0.1 µM
[27] = second compound 3.16 µM, first compound 0.316 µM
[28] = second compound 3.16 µM, first compound 1 µM
[29] = second compound 3.16 µM, first compound 3.16 µM
[30] = second compound 3.16 µM, first compound 10 µM
[31] = second compound 10 µM, first compound 0.0316 µM
[32] = second compound 10 µM, first compound 0.1 µM
[33] = second compound 10 µM, first compound 0.316 µM
[34] = second compound 10 µM, first compound 1 µM
[35] = second compound 10 µM, first compound 3.16 µM
[36] = second compound 10 µM, first compound 10 µM
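Also: spheroids exposed to agents for 7 days before readout.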
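For viability, T/C in this document: percent viability relative to DMSO vehicle control wells taken as 100%.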

SMILES: C=CCn1c(=O)c2cnc(Nc3ccc(N4CCN(C)CC4)cc3)nc2n1-c1cccc(C(C)(C)O)n1 + Cc1[nH]c2ccc(F)cc2c1-c1nc2c3cccnc3c3ncccc3c2[nH]1
IC50 (second compound 0.0316 µM): 330 nM | IC50 (second compound 0.1 µM): 352 nM | IC50 (second compound 0.316 µM): 315 nM | IC50 (second compound 1 µM): 342 nM | IC50 (second compound 3.16 µM): 256 nM | IC50 (second compound 10 µM): 227 nM | viability, T/C [1]: 95.5% | viability, T/C [2]: 90.1% | viability, T/C [3]: 48.3% | viability, T/C [4]: 25.4% | viability, T/C [5]: 12.4% | viability, T/C [6]: 12.2% | viability, T/C [7]: 97.4% | viability, T/C [8]: 99.9% | viability, T/C [9]: 50.6% | viability, T/C [10]: 28.4% | viability, T/C [11]: 17.9% | viability, T/C [12]: 11.9% | viability, T/C [13]: 106% | viability, T/C [14]: 99.6% | viability, T/C [15]: 47.5% | viability, T/C [16]: 25.4% | viability, T/C [17]: 12.9% | viability, T/C [18]: 12.4% | viability, T/C [19]: 103% | viability, T/C [20]: 104% | viability, T/C [21]: 52% | viability, T/C [22]: 18.6% | viability, T/C [23]: 14.2% | viability, T/C [24]: 9.69% | viability, T/C [25]: 98.4% | viability, T/C [26]: 87.7% | viability, T/C [27]: 40.9% | viability, T/C [28]: 15.8% | viability, T/C [29]: 11.1% | viability, T/C [30]: 6.8% | viability, T/C [31]: 95.3% | viability, T/C [32]: 88.3% | viability, T/C [33]: 34% | viability, T/C [34]: 17.9% | viability, T/C [35]: 11.2% | viability, T/C [36]: 6.71%

SMILES: CC(=O)O[C@H]1C(=O)[C@@]2(C)[C@H]([C@H](OC(=O)c3ccccc3)[C@]3(O)C[C@H](OC(=O)[C@H](O)[C@@H](NC(=O)c4ccccc4)c4ccccc4)C(C)=C1C3(C)C)[C@]1(OC(C)=O)CO[C@@H]1C[C@@H]2O + CN(C)c1ccc(Nc2c3ccc(NC(=O)CCN4CCCC4)cc3nc3cc(NC(=O)CCN4CCCC4)ccc23)cc1
IC50 (second compound 0.0316 µM): < 31.6 nM | IC50 (second compound 0.1 µM): < 31.6 nM | IC50 (second compound 0.316 µM): < 31.6 nM | IC50 (second compound 1 µM): < 31.6 nM | IC50 (second compound 3.16 µM): < 31.6 nM | IC50 (second compound 10 µM): < 31.6 nM | viability, T/C [1]: 28.9% | viability, T/C [2]: 20.4% | viability, T/C [3]: 18.1% | viability, T/C [4]: 14.6% | viability, T/C [5]: 12.1% | viability, T/C [6]: 13.2% | viability, T/C [7]: 24.7% | viability, T/C [8]: 19.5% | viability, T/C [9]: 16.4% | viability, T/C [10]: 14% | viability, T/C [11]: 12.8% | viability, T/C [12]: 11.4% | viability, T/C [13]: 41.4% | viability, T/C [14]: 22.1% | viability, T/C [15]: 14.8% | viability, T/C [16]: 10.8% | viability, T/C [17]: 12.3% | viability, T/C [18]: 14.2% | viability, T/C [19]: 34% | viability, T/C [20]: 15% | viability, T/C [21]: 16% | viability, T/C [22]: 8.58% | viability, T/C [23]: 16.5% | viability, T/C [24]: 12.9% | viability, T/C [25]: 28.6% | viability, T/C [26]: 14.3% | viability, T/C [27]: 15.3% | viability, T/C [28]: 11.1% | viability, T/C [29]: 11.2% | viability, T/C [30]: 11.8% | viability, T/C [31]: 26.2% | viability, T/C [32]: 16.4% | viability, T/C [33]: 17.4% | viability, T/C [34]: 12.2% | viability, T/C [35]: 9.14% | viability, T/C [36]: 11.9%

IC50 (second compound 0.0316 µM): < 31.6 nM | IC50 (second compound 0.1 µM): < 31.6 nM | IC50 (second compound 0.316 µM): < 31.6 nM | IC50 (second compound 1 µM): < 31.6 nM | IC50 (second compound 3.16 µM): < 31.6 nM | IC50 (second compound 10 µM): < 31.6 nM
SMILES: CC(=O)O[C@H]1C(=O)[C@@]2(C)[C@H]([C@H](OC(=O)c3ccccc3)[C@]3(O)C[C@H](OC(=O)[C@H](O)[C@@H](NC(=O)c4ccccc4)c4ccccc4)C(C)=C1C3(C)C)[C@]1(OC(C)=O)CO[C@@H]1C[C@@H]2O + Cc1cnc(CNC(=O)c2c(=O)c3ccc(N4CCCN(C)CC4)nc3n3c2sc2ccccc23)cn1
viability, T/C [1]: 37.2% | viability, T/C [2]: 24.9% | viability, T/C [3]: 20.3% | viability, T/C [4]: 15.9% | viability, T/C [5]: 27.6% | viability, T/C [6]: 17.1% | viability, T/C [7]: 26.9% | viability, T/C [8]: 35.8% | viability, T/C [9]: 31.1% | viability, T/C [10]: 26.7% | viability, T/C [11]: 26.2% | viability, T/C [12]: 32% | viability, T/C [13]: 37% | viability, T/C [14]: 34.4% | viability, T/C [15]: 38.5% | viability, T/C [16]: 36.4% | viability, T/C [17]: 39.4% | viability, T/C [18]: 24.7% | viability, T/C [19]: 22.9% | viability, T/C [20]: 35.4% | viability, T/C [21]: 30.1% | viability, T/C [22]: 37.9% | viability, T/C [23]: 30.2% | viability, T/C [24]: 33.8% | viability, T/C [25]: 26.6% | viability, T/C [26]: 21.6% | viability, T/C [27]: 28.9% | viability, T/C [28]: 35.8% | viability, T/C [29]: 22.5% | viability, T/C [30]: 30.2% | viability, T/C [31]: 25% | viability, T/C [32]: 22.3% | viability, T/C [33]: 27.9% | viability, T/C [34]: 25% | viability, T/C [35]: 24.4% | viability, T/C [36]: 25.8%

IC50 (second compound 0.0316 µM): 255 nM | IC50 (second compound 0.1 µM): 131 nM | IC50 (second compound 0.316 µM): < 31.6 nM | IC50 (second compound 1 µM): < 31.6 nM | IC50 (second compound 3.16 µM): < 31.6 nM | IC50 (second compound 10 µM): < 31.6 nM
SMILES: C=CCn1c(=O)c2cnc(Nc3ccc(N4CCN(C)CC4)cc3)nc2n1-c1cccc(C(C)(C)O)n1 + Cc1cnc(CNC(=O)c2c(=O)c3ccc(N4CCCN(C)CC4)nc3n3c2sc2ccccc23)cn1
viability, T/C [1]: 110% | viability, T/C [2]: 71.4% | viability, T/C [3]: 44.4% | viability, T/C [4]: 32.2% | viability, T/C [5]: 23.4% | viability, T/C [6]: 21.9% | viability, T/C [7]: 57.2% | viability, T/C [8]: 55% | viability, T/C [9]: 40.1% | viability, T/C [10]: 38.3% | viability, T/C [11]: 24.4% | viability, T/C [12]: 17.8% | viability, T/C [13]: 44.1% | viability, T/C [14]: 39.4% | viability, T/C [15]: 30% | viability, T/C [16]: 30.2% | viability, T/C [17]: 27.7% | viability, T/C [18]: 21% | viability, T/C [19]: 29.8% | viability, T/C [20]: 30.8% | viability, T/C [21]: 21% | viability, T/C [22]: 21.9% | viability, T/C [23]: 25.2% | viability, T/C [24]: 17.3% | viability, T/C [25]: 31.2% | viability, T/C [26]: 31.8% | viability, T/C [27]: 19.8% | viability, T/C [28]: 17.5% | viability, T/C [29]: 12.2% | viability, T/C [30]: 16.8% | viability, T/C [31]: 25.1% | viability, T/C [32]: 26.2% | viability, T/C [33]: 13.2% | viability, T/C [34]: 15.5% | viability, T/C [35]: 16.8% | viability, T/C [36]: 15.5%

IC50 (second compound 0.0316 µM): > 10000 nM | IC50 (second compound 0.1 µM): > 10000 nM | IC50 (second compound 0.316 µM): 938 nM | IC50 (second compound 1 µM): < 31.6 nM | IC50 (second compound 3.16 µM): < 31.6 nM | IC50 (second compound 10 µM): < 31.6 nM
SMILES: C=CC(=O)N1CCN(c2nc(=O)n(-c3c(C)ccnc3C(C)C)c3nc(-c4c(O)cccc4F)c(F)cc23)C(C)C1 (stereo not given) + Cc1cnc(CNC(=O)c2c(=O)c3ccc(N4CCCN(C)CC4)nc3n3c2sc2ccccc23)cn1
viability, T/C [1]: 106% | viability, T/C [2]: 109% | viability, T/C [3]: 99.1% | viability, T/C [4]: 95.9% | viability, T/C [5]: 89.2% | viability, T/C [6]: 63.7% | viability, T/C [7]: 79.8% | viability, T/C [8]: 73.9% | viability, T/C [9]: 43.4% | viability, T/C [10]: 64% | viability, T/C [11]: 94.5% | viability, T/C [12]: 48.5% | viability, T/C [13]: 43.1% | viability, T/C [14]: 69.1% | viability, T/C [15]: 62.8% | viability, T/C [16]: 49.5% | viability, T/C [17]: 43.8% | viability, T/C [18]: 47.6% | viability, T/C [19]: 30.9% | viability, T/C [20]: 41% | viability, T/C [21]: 38.5% | viability, T/C [22]: 34.4% | viability, T/C [23]: 38% | viability, T/C [24]: 41.8% | viability, T/C [25]: 30.6% | viability, T/C [26]: 36.6% | viability, T/C [27]: 32.9% | viability, T/C [28]: 26.6% | viability, T/C [29]: 37% | viability, T/C [30]: 42.5% | viability, T/C [31]: 30.9% | viability, T/C [32]: 28.6% | viability, T/C [33]: 26% | viability, T/C [34]: 35.2% | viability, T/C [35]: 34.4% | viability, T/C [36]: 24.2%
